Reference: US20080108611A1, “SUBSTITUTED THIENOPYRIMIDINE KINASE INHIBITORS” (priority 2006, published 2008)

Assays:
VEGF-R2 = molecular target: T1, VEGF-R2 (Rattus norvegicus, UniProt O08775); test: VEGF-R2 Screening Assay; type: biochemical; settings: rat VEGF-R2 kinase domain, 10 μM ATP
T1 construct: polyhistidine (N)
Procedure: A kinase reaction mixture was prepared containing 50 mM Tris-HCl at pH 8, 10 mM MgCl2, 0.1 mM Na3PO4, 1 mM DTT, 10 μM ATP, 0.025 μM biotinylated histone-H1 peptide substrate and 0.2 μCuries per well ^33P-γ-ATP (2000-3000 Ci/mmol). 70 μL of the kinase reaction mixture was dispensed into the well of a Streptavidin FlashPlate.
Test compound stock in 100% DMSO (1 μL) was added to the wells resulting in a final concentration of 1% DMSO in the reaction with a 100 μL final reaction volume. Each enzyme was diluted in 50 mM Tris-HCl pH=8.0, 0.1% BSA and 30 μL was added to each well to initiate the reaction. The reaction was incubated for one hour at 30° C. At the end of the 1 hr incubation, the reaction was terminated by aspirating the mixture from the plate and washing the wells twice with PBS containing 100 mM EDTA. The biotinylated peptide substrate became immobilized on the Flashplate™ and the incorporation of ^33P-γ-ATP was measured by reading the plate on a scintillation counter. Inhibition of the enzymatic activity was measured by observing a reduced amount of ^33P-γ-ATP incorporated into the immobilized peptide.
The VEGF-R2 enzyme is a fusion protein containing a polyhistidine tag at the N terminus followed by amino acids 786 to 1343 of the rat VEGF-R2 kinase domain (Accession number U93306). The assay used 150 ng of the N-terminal biotinylated peptide biotin-KHKKLAEGSAYEEV-amide (VEGF-R2) per well.
The IC50 was derived according to the procedure described in Example 1.

HER-2 = molecular target: T2, HER-2 (Homo sapiens, UniProt P04626); test: HER-2 Kinase Assay; type: biochemical; settings: GST-HER2, 1 μM ATP
T2 construct: the nucleotides encoding amino acids 679 to 1255 of HER-2; HIS6-Thrombin (His6 tag and thrombin site) (N); purchased Proqinase (Freiburg, Germany)
T2 sequence (P04626 679-1255): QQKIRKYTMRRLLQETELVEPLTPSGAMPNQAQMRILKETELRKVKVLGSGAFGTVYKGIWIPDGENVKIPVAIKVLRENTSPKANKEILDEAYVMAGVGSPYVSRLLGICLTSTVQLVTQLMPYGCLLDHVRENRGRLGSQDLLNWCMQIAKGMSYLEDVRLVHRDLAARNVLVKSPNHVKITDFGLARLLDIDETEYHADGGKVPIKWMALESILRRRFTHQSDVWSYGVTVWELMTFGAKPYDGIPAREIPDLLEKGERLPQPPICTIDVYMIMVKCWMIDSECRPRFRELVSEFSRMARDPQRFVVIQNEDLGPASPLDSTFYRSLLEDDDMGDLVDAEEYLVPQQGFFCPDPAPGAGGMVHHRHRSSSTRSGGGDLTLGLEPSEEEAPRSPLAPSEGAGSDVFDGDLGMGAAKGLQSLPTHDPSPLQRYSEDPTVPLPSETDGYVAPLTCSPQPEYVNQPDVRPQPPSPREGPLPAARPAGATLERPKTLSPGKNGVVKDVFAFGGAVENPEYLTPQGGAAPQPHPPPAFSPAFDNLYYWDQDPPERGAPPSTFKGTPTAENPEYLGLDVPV
Procedure: HER-2 kinase was purified at Proqinase (Freiburg, Germany) from a construct that consisted of a fusion of GST (Glutathione-S-Transferase), HIS6-Thrombin and the nucleotides encoding amino acids 679 to 1255 of HER-2.
A mixture of a 10× kinase reaction buffer (600 mM Hepes at pH 7.5, 30 mM Magnesium Chloride, 0.03 mM Sodium Vanadate and 500 μg/mL PEG 20,000), DTT (1.2 mM final from a 10 mM stock), ATP (1 μM from a 10 mM stock), biotinylated polyGluTyr (1.5 ng/μL final from stock of 1 μg/μL prepared by Upstate Biotechnologies, Lake Placid, N.Y.), Manganese Chloride (3 mM final from a 1 M stock), γ-^33P-ATP (10 μCi/μL stock) and water (70 μL/well) was added to each well of a Streptavidin Flashplate (Cat. # SMP103, NEN, Boston, Mass.).
Test compound stock (1 μL) was added to the appropriate wells. Diluted GSTHER2 kinase (6.7 ng/μL diluted into 50 mM Tris-HCl at pH 8.0 and 0.1% bovine serum albumin) (30 μL) was added (total volume of 200 ng/well) to initiate the reactions.
The reaction plates were incubated at 30° C. for 1 hr. The reaction was terminated by aspirating the reaction mixture from the plate wells and washing the wells three times with a 1×PBS stop buffer (300 μL) and 100 mM EDTA. After the final wash, the same stop buffer (200 μL) was again added to the wells. The plates were then sealed and read on the TopCount scintillation counter. The IC50 was derived according to the procedure described in Example 1.

[1] = test system: HeLa cervical adenocarcinoma; test: Cell Proliferation Inhibition Assay (14C-thymidine incorporation), HeLa; type: cell-based; settings: Homo sapiens; HeLa cells
Procedure: (§1) The ability of a test compound to inhibit unregulated cell proliferation was determined by measuring incorporation of ^14C-labelled thymidine into newly synthesized DNA within cell lines derived from carcinomas originating from several tissues. Accordingly, the anti-proliferative effect of a compound on cells with a variety of phenotypes may be determined.
(§2) Carcinoma cell lines include those such as HeLa cervical adenocarcinoma (American Type Culture Collection (ATCC), Virginia, Cat. #CCL-2), A375 malignant melanoma (ATCC CRL-1619), SK-OV-3 ovarian adenocarcinoma (ATCC HTB-77), HCT-116 colon carcinoma (CCL-247), PC-3 prostate adenocarcinoma (ATCC CRL-1435), and MDA-MB-231 (Xenogen Corp.)
(§3) The carcinoma cells were trypsinized and counted. The cells (3000-8000 count) were added to each well of a 96-well CytoStar tissue culture treated scintillating microplate (Amersham #RPNQ0160) in complete medium (100 μL) and the plate was then incubated in complete medium for 24 hrs at 37° C. in an […] atmosphere containing 5% CO2. Test compound (1 μL) in 100% DMSO was added to the plate test-wells with DMSO only added to control-wells. The plate was incubated in complete medium for a second 24 hr period at 37° C. in an atmosphere containing 5% CO2.
(§4) An aliquot of a solution of methyl ^14C-thymidine (56 mC/mmol) (NEN #NEC568 or Amersham #CFA532) and complete medium (20 uL to provide 0.2 μCi/well) was then added to each well and the plate was incubated for a third 24 hr period at 37° C. in an atmosphere containing 5% CO2. The plate contents were then discarded, the plate was washed twice with PBS (200 μL) and then PBS (200 μL) was added to each well. The plate was sealed and the degree of methyl ^14C-thymidine incorporation was quantified on a Packard Top Count.

A375 malignant melanoma = test: Cell Proliferation Inhibition Assay (14C-thymidine incorporation), A375; type: cell-based; settings: Homo sapiens, A-375; A375 cells
Procedure: as §1, §2, §3, §4

T1 sequence (O08775 786-1343): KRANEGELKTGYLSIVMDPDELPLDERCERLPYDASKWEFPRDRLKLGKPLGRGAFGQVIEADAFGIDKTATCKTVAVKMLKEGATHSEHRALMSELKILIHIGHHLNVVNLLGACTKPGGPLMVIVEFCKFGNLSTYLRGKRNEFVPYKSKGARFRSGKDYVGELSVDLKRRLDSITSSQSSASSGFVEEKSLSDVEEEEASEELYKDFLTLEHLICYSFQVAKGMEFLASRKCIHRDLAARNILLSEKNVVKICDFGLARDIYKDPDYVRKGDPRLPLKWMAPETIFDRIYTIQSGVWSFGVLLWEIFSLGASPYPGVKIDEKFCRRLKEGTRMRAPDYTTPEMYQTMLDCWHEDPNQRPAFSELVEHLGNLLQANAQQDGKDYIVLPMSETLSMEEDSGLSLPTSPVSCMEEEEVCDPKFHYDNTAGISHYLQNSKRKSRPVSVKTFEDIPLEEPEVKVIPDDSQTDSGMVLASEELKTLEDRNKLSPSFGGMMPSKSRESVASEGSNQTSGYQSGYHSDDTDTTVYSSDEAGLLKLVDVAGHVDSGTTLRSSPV

Compound | IC50 (VEGF-R2) | IC50 (HER-2) | IC50 [1] | IC50 (A375 malignant melanoma)
Cc1cc2c(F)c(Oc3ncnc4sc(C(=O)NCCN5CCOCC5)c(C)c34)ccc2[nH]1 [Cpd 19, 4-(4-fluoro-2-methyl-1H-indol-5-yloxy)-5-methyl-thieno[2,3-d]pyrimidine-6-carboxylic acid (2-morpholin-4-yl-ethyl)-amide] | 0.248 µM | > 100 µM | > 10 µM | > 10 µM
Cc1cc2c(F)c(Oc3ncnc4sc(C(=O)NCCN5CCCCC5)c(C)c34)ccc2[nH]1 [Cpd 21, 4-(4-fluoro-2-methyl-1H-indol-5-yloxy)-5-methyl-thieno[2,3-d]pyrimidine-6-carboxylic acid (2-piperidin-1-yl-ethyl)-amide] | 0.393 µM | > 100 µM | 8.5 µM | 1.5 µM
Cc1cc2c(F)c(Oc3ncnc4sc(C(=O)NCCN5CCCC5)c(C)c34)ccc2[nH]1 [Cpd 22, 4-(4-fluoro-2-methyl-1H-indol-5-yloxy)-5-methyl-thieno[2,3-d]pyrimidine-6-carboxylic acid (2-pyrrolidin-1-yl-ethyl)-amide] | 0.619 µM | > 100 µM | 15.2 µM | 2.2 µM
Cc1c(C(=O)Nc2ccc(CN3CCOCC3)cc2)sc2ncnc(Nc3ccc(Oc4ccccc4)cc3)c12 [Cpd 23, 5-methyl-4-(4-phenoxy-phenylamino)-thieno[2,3-d]pyrimidine-6-carboxylic acid (4-morpholin-4-ylmethyl-phenyl)-amide] | > 100 µM | > 100 µM | > 10 µM | 2.9 µM
COCCNC(=O)c1sc2ncnc(Oc3ccc4[nH]c(C)cc4c3F)c2c1C [Cpd 27, 4-(4-fluoro-2-methyl-1H-indol-5-yloxy)-5-methyl-thieno[2,3-d]pyrimidine-6-carboxylic acid (2-methoxy-ethyl)-amide] | 0.378 µM | > 10 µM | > 10 µM | > 10 µM

Continued, values first:

IC50 (VEGF-R2) | IC50 (HER-2) | IC50 [1] | IC50 (A375 malignant melanoma) | Compound
0.761 µM | > 100 µM | > 10 µM | > 10 µM | Cc1cc2c(F)c(Oc3ncnc4sc(C(=O)Nc5ccc(CN6CCOCC6)cc5)c(C)c34)ccc2[nH]1 [Cpd 20, 4-(4-fluoro-2-methyl-1H-indol-5-yloxy)-5-methyl-thieno[2,3-d]pyrimidine-6-carboxylic acid (4-morpholin-4-ylmethyl-phenyl)-amide]
~100 µM | > 10 µM | > 100 µM | > 10 µM | Cc1c(C(=O)NCCN2CCOCC2)sc2ncnc(Nc3ccc(Oc4ccccc4)cc3)c12 [Cpd 24]
